According to PubChem BioAssay AID330 (DTP/NCI, 2004):
Several values for one entry are separate records, joined by “and”; a condition that tells them apart may be missing. Identical values can stand only once. Toxic doses and inconclusive results are not listed.

Test system: P388 leukemia ip, CD2F1 mice, survival T/C
Assay: NCI In Vivo Anticancer Drug Screen. Data for tumor model P388 Leukemia (intraperitoneal) in CD2F1 (CDF1) mice
Settings: endpoint: median survival time, higher = longer survival
In short: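 Mice carrying the transplanted tumor received test compound or vehicle. Survival was recorded in each group, and the value is the treated-group measurement divided by that of the vehicle-treated control group.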

[1] = dose: 12.5 mg/kg/injection, schedule: Q01DX009 (ip), vehicle: saline
[2] = dose: 25.0 mg/kg/injection, schedule: Q01DX009 (ip), vehicle: saline
[3] = dose: 50.0 mg/kg/injection, schedule: Q01DX009 (ip), vehicle: saline
[4] = dose: 200.0 mg/kg/injection, schedule: Q01DX009 (ip), vehicle: saline
[5] = dose: 50.0 mg/kg/injection, schedule: Q01DX005 (ip), vehicle: saline with Tween-80
[6] = dose: 100.0 mg/kg/injection, schedule: Q01DX005 (ip), vehicle: saline with Tween-80
[7] = dose: 60.0 mg/kg/injection, schedule: Q01DX005 (ip), vehicle: saline with Tween-80
[8] = dose: 120.0 mg/kg/injection, schedule: Q01DX005 (ip), vehicle: saline with Tween-80
[9] = dose: 240.0 mg/kg/injection, schedule: Q01DX005 (ip), vehicle: saline with Tween-80
[10] = dose: 100.0 mg/kg/injection, schedule: Q04DX003 (ip), vehicle: saline
[11] = dose: 25.0 mg/kg/injection, schedule: Q01DX009 (ip), vehicle: saline with Tween-80
[12] = dose: 50.0 mg/kg/injection, schedule: Q01DX009 (ip), vehicle: saline with Tween-80
[13] = dose: 100.0 mg/kg/injection, schedule: Q01DX009 (ip), vehicle: saline with Tween-80
[14] = dose: 200.0 mg/kg/injection, schedule: Q04DX003 (ip), vehicle: saline
[15] = dose: 100.0 mg/kg/injection, schedule: Q01DX009 (ip), vehicle: saline
[16] = dose: 50.0 mg/kg/injection, schedule: Q01DX005 (ip), vehicle: Klucel (hydroxypropylcellulose) (HPC)
[17] = dose: 100.0 mg/kg/injection, schedule: Q01DX005 (ip), vehicle: Klucel (hydroxypropylcellulose) (HPC)

Compound: CC1(C)C(C#N)C(=O)NC(=O)C1C#N (stereo not given)
- T/C (dose: 12.5 mg/kg/injection, schedule: Q01DX009 (ip), vehicle: water): 97 % of control
- T/C (dose: 25.0 mg/kg/injection, schedule: Q01DX009 (ip), vehicle: water): 95 % of control
- T/C (dose: 50.0 mg/kg/injection, schedule: Q01DX009 (ip), vehicle: water): 93 % of control
- T/C (dose: 100.0 mg/kg/injection, schedule: Q01DX009 (ip), vehicle: water): 104 % of control
- T/C (dose: 200.0 mg/kg/injection, schedule: Q01DX009 (ip), vehicle: water): 101 % of control

Compound: CCC(=O)NC(CC(C)C)C(=O)O (stereo not given)
- T/C [1]: 111 % of control
- T/C [2]: 95 % of control
- T/C [3]: 89 % of control
- T/C [4]: 107 % of control

Compound: CCCCCCCCCCCC1=C(O)C(=O)C(Br)=C(O)C1=O
- T/C [5]: 92 % of control
- T/C [6]: 92 % of control

Compound: Cc1cc([N+](=O)[O-])ccc1NC(=O)OC(C)C
- T/C [7]: 99 % of control
- T/C [8]: 111 % of control
- T/C [9]: 99 % of control

Compound: CCOc1ccc2nc3cc(N)ccc3c(N)c2c1
- T/C (dose: 44.0 mg/kg/injection, schedule: Q04DX003 (ip), vehicle: saline): 118 % of control
- T/C (dose: 66.0 mg/kg/injection, schedule: Q04DX003 (ip), vehicle: saline): 118 % of control
- T/C [10]: 118 % of control
- T/C (dose: 150.0 mg/kg/injection, schedule: Q04DX003 (ip), vehicle: saline): 118 % of control

Compound: CCn1c2nc(=O)n(C)c(=O)c-2cc2cc(C)ccc21
- T/C (dose: 12.5 mg/kg/injection, schedule: Q01DX009 (ip), vehicle: saline with Tween-80): 92 % of control
- T/C [11]: 101 % of control
- T/C [12]: 109 % of control

Compound: C/C=C/C(=O)Nc1cccc(OC(=O)NC(C)(C)C)c1
- T/C [11]: 101 % of control
- T/C [12]: 100 % of control
- T/C [13]: 97 % of control

Compound: c1ccc(C[N+]23CC[N+](Cc4ccccc4)(CC2)CC3)cc1
- T/C (dose: 50.0 mg/kg/injection, schedule: Q04DX003 (ip), vehicle: saline): 95 % of control
- T/C [10]: 108 % of control
- T/C [14]: 95 % of control

Compound: CC1COCCOCCOCC(C)OC(=O)CSCC(=O)O1 (stereo not given)
- T/C [10]: 100 % of control
- T/C [14]: 104 % of control
- T/C (dose: 400.0 mg/kg/injection, schedule: Q04DX003 (ip), vehicle: saline): 92 % of control

Compound: Cc1cc(-c2ccccc2)nc2nc3ccccc3n12
- T/C [7]: 105 % of control
- T/C [8]: 103 % of control
- T/C [9]: 103 % of control

Compound: CC(=O)OCC(OC(C)=O)C(OC(C)=O)C(OC1OC(COC(C)=O)C(OC(C)=O)C(OC(C)=O)C1OC(C)=O)C(COC(C)=O)OC(C)=O (stereo not given)
- T/C (dose: 50.0 mg/kg/injection, schedule: Q01DX005 (ip), vehicle: suspension in saline): 97 % of control
- T/C (dose: 100.0 mg/kg/injection, schedule: Q01DX005 (ip), vehicle: suspension in saline): 91 % of control
- T/C (dose: 200.0 mg/kg/injection, schedule: Q01DX005 (ip), vehicle: suspension in saline): 99 % of control

Compound: O=C(CBr)NC1OC(CO)C(O)C(O)C1O (stereo not given)
- T/C (dose: 2.5 mg/kg/injection, schedule: Q01DX009 (ip), vehicle: saline): 99 % of control
- T/C (dose: 5.0 mg/kg/injection, schedule: Q01DX009 (ip), vehicle: saline): 112 % of control
- T/C (dose: 10.0 mg/kg/injection, schedule: Q01DX009 (ip), vehicle: saline): 108 % of control

Compound: COC(OC)C(C)(C)NC(C)(C)C
- T/C [3]: 104 % of control
- T/C [15]: 100 % of control

Compound: O=C(O)C(S)c1ccc2ccccc2c1 (stereo not given)
- T/C (dose: 100.0 mg/kg/injection, schedule: Q01DX009 (ip), vehicle: Klucel (hydroxypropylcellulose) (HPC)): 90 % of control
- T/C (dose: 200.0 mg/kg/injection, schedule: Q01DX009 (ip), vehicle: Klucel (hydroxypropylcellulose) (HPC)): 100 % of control

Compound: COc1ccccc1NC(=O)CC(=O)N1N=C(C)C(N=Nc2cccc(C(=O)O)c2)C1=O (stereo not given)
- T/C [7]: 98 % of control
- T/C [8]: 98 % of control

Compound: CCN(C)N=Nc1cccnc1
- T/C [1]: 103 % of control and 92 % of control and 97 % of control
- T/C [2]: 100 % of control and 102 % of control and 92 % of control
- T/C [3]: 103 % of control and 111 % of control and 91 % of control
- T/C [15]: 107 % of control and 110 % of control

Compound: CC(C)c1ccc2nc3ccc(C(=O)NCCN(C)C)cn3c(=O)c2c1
- T/C (dose: 60.0 mg/kg/injection, schedule: Q01DX005 (ip), vehicle: Klucel (hydroxypropylcellulose) (HPC)): 105 % of control
- T/C (dose: 120.0 mg/kg/injection, schedule: Q01DX005 (ip), vehicle: Klucel (hydroxypropylcellulose) (HPC)): 101 % of control

Compound: COc1cc(C/C=C/c2ccccc2)c(OC)cc1O
- T/C (dose: 2.5 mg/kg/injection, schedule: Q01DX009 (ip), vehicle: saline with Tween-80): 91 % of control
- T/C (dose: 5.0 mg/kg/injection, schedule: Q01DX009 (ip), vehicle: saline with Tween-80): 102 % of control
- T/C (dose: 10.0 mg/kg/injection, schedule: Q01DX009 (ip), vehicle: saline with Tween-80): 101 % of control

Compound: CC([NH-])C[NH-].O=[N+]([O-])O.O=[N+]([O-])O.[Pt+2] (stereo not given)
- T/C (dose: 6.25 mg/kg/injection, schedule: Q04DX002 (ip), vehicle: saline): 153 % of control
- T/C (dose: 12.5 mg/kg/injection, schedule: Q04DX002 (ip), vehicle: saline): 100 % of control and 98 % of control

Compound: CCOC(=O)c1sc(SSc2sc(C(=O)OCC)c(-c3ccccc3)c2[N+](=O)[O-])c([N+](=O)[O-])c1-c1ccccc1
- T/C (dose: 100.0 mg/kg/injection, schedule: Q04DX002 (ip), vehicle: saline with Tween-80): 104 % of control
- T/C (dose: 200.0 mg/kg/injection, schedule: Q04DX002 (ip), vehicle: saline with Tween-80): 107 % of control
- T/C (dose: 400.0 mg/kg/injection, schedule: Q04DX002 (ip), vehicle: saline with Tween-80): 118 % of control

Compound: CC(=Nc1ccc2c(c1)C(=O)c1ccc(N=C(C)N(C)C)cc1C2=O)N(C)C
- T/C [16]: 100 % of control
- T/C [17]: 109 % of control
- T/C (dose: 200.0 mg/kg/injection, schedule: Q01DX005 (ip), vehicle: Klucel (hydroxypropylcellulose) (HPC)): 100 % of control

Compound: CC1CN(Cc2cc(C(C)(C)c3cc(Cl)c(O)c(CN4CC(C)OC(C)C4)c3)cc(Cl)c2O)CC(C)O1 (stereo not given)
- T/C (dose: 12.5 mg/kg/injection, schedule: Q01DX005 (ip), vehicle: saline with Tween-80): 101 % of control
- T/C (dose: 25.0 mg/kg/injection, schedule: Q01DX005 (ip), vehicle: saline with Tween-80): 101 % of control
- T/C [5]: 87 % of control and 91 % of control

Compound: O=S(=O)(O)CCCS(=O)(=O)O
- T/C [3]: 98 % of control
- T/C [15]: 98 % of control
- T/C [4]: 101 % of control

Compound: COc1cc([N+](=O)[O-])c(S(=O)(=O)O)cc1N=N/C(=N/Nc1cc(S(=O)(=O)O)c([N+](=O)[O-])cc1OC)C(=O)Nc1ccccc1
- T/C [16]: 95 % of control
- T/C [17]: 93 % of control

Compound: C=C1C(=O)OC2CC3=CCC(OC3=O)/C(C)=C\CC12 (stereo not given)
- T/C (dose: 21.5 mg/kg/injection, schedule: Q01DX005 (ip), vehicle: Klucel (hydroxypropylcellulose) (HPC)): 118 % of control
- T/C (dose: 43.0 mg/kg/injection, schedule: Q01DX005 (ip), vehicle: Klucel (hydroxypropylcellulose) (HPC)): 116 % of control
- T/C (dose: 86.0 mg/kg/injection, schedule: Q01DX005 (ip), vehicle: Klucel (hydroxypropylcellulose) (HPC)): 108 % of control

Compound: O=C1NCCc2ccc(cc2)OCCC(=O)N2CCCC12 (stereo not given)
- T/C (dose: 35.0 mg/kg/injection, schedule: Q01DX005 (ip), vehicle: Klucel (hydroxypropylcellulose) (HPC)): 107 % of control
- T/C (dose: 70.0 mg/kg/injection, schedule: Q01DX005 (ip), vehicle: Klucel (hydroxypropylcellulose) (HPC)): 104 % of control
- T/C (dose: 140.0 mg/kg/injection, schedule: Q01DX005 (ip), vehicle: Klucel (hydroxypropylcellulose) (HPC)): 98 % of control

Compound: Cc1cc(=O)c2ccc(N(C)C)cc2[nH]1
- T/C [5]: 95 % of control
- T/C [6]: 96 % of control
- T/C (dose: 200.0 mg/kg/injection, schedule: Q01DX005 (ip), vehicle: saline with Tween-80): 101 % of control

Compound: CCOc1cc(CN2CCN(CCO)CC2)c(O)c(CN2CCN(CCO)CC2)c1
- T/C (dose: 60.0 mg/kg/injection, schedule: Q01DX005 (ip), vehicle: water): 97 % of control
- T/C (dose: 120.0 mg/kg/injection, schedule: Q01DX005 (ip), vehicle: water): 103 % of control
- T/C (dose: 240.0 mg/kg/injection, schedule: Q01DX005 (ip), vehicle: water): 104 % of control

Compound: O=C(CCC(=O)Nc1cc(Cl)ccc1Cl)CC(=O)c1ccc([N+](=O)[O-])cc1
- T/C [7]: 98 % of control
- T/C [8]: 100 % of control
- T/C [9]: 109 % of control

Compound: CC(C)c1nc(C=O)c(C=O)n1Cc1ccccc1
- T/C [7]: 97 % of control
- T/C [8]: 92 % of control
- T/C [9]: 97 % of control

Compound: CC1(C)CCCc2c(-c3ccccc3)cc3c4ccccc4cc[n+]3c21
- T/C [12]: 89 % of control
- T/C [13]: 88 % of control
